Assays:
[1] = biological target: T1, histone deacetylase activity (HeLa nuclear extract); assay: HDAC fluorescent activity assay (Biomol Fluor de Lys), HeLa nuclear extract; type: biochemical; conditions: Fluor de Lys substrate, IC50 range
T1 construct: Histone deacetylase activity from crude nuclear extract derived from HeLa cells was used for screening
How it was run: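 Crude HeLa nuclear extract (20 mM Hepes, 100 mM KCl, 0.2 mM EDTA, 0.5 mM DTT, 0.2 mM PMSF, 20% glycerol) incubated with acetyl-lysine Fluor de Lys substrate ± inhibitor; developer generates fluorophore. Background-subtracted % of vehicle control; IC50 from eight-point variable-slope sigmoidal fit.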

U937 cancer cell line = assay: Cell inhibition assay (SRB cell viability), U937; type: cell-based; conditions: 72 h, IC50 range
How it was run: (§1)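 Log-phase Hela, U937 and HUT cells were seeded at 1000 cells/well, grown 24 h, then exposed to compound (20 uM final) for 72 h. Viability was read by sulphorhodamine B staining and expressed as % inhibition relative to DMSO control. IC50 values came from sigmoidal variable-slope fits of eight concentrations.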

HUT cancer cell line = assay: Cell inhibition assay (SRB cell viability), HUT; type: cell-based; conditions: HUT cells, 72 h, IC50 range
How it was run: as §1

Hela cancer cell line = assay: Cell inhibition assay (SRB cell viability), Hela; type: cell-based; conditions: 72 h, Hela cells, IC50 range
How it was run: as §1

[2] = Homo sapiens, U-937, U937 cells

In the case of CC(C)(C)OC[C@H](NCc1ccc(CNCc2ccc3cc(C(=O)NO)sc3c2)cc1)C(=O)OC1CCCC1 [Compound 109, (S)-3-tert-Butoxy-2-(4-{[(2-hydroxycarbarnoyl-benzo[b]thiophen-6-ylmethyl)-amino]-methyl}-benzylamino)-propionic acid cyclopentyl ester], the IC50 [1] is reported as less than 100 nM, the IC50 (U937 cancer cell line; [2]) is reported as less than 330 nM and the IC50 (HUT cancer cell line) is reported as 330 to 3300 nM. For the same compound, the IC50 (Hela cancer cell line; Homo sapiens, HeLa) was 330 to 3300 nM.

O=C(CCCCCCC(=O)Nc1cccc(OCCN[C@@H](Cc2ccccc2)C(=O)OC2CCCC2)c1)NO [Compound 73, (S)-2-{2-[3-(7-Hydroxycarbamoyl-heptanoylamino)-phenoxy]-ethylamino}-3-phenyl-propionic acid cyclopentyl ester] gave an IC50 [1] of less than 100 nM, an IC50 (U937 cancer cell line; [2]) of less than 330 nM and an IC50 (HUT cancer cell line) of 330 to 3300 nM. It also gave an IC50 (Hela cancer cell line; Homo sapiens, HeLa) of 330 to 3300 nM.

CSCC[C@H](NCc1ccc(CNCc2ccc3cc(C(=O)NO)sc3c2)cc1)C(=O)OC1CCCC1 [Compound 110, (S)-2-(4-{[(2-Hydroxycarbamoyl-benzo[b]thiophen-6-ylmethyl)-amino]-methyl}-benzylamino)-4-methylsulfanyl-butyric acid cyclopentyl ester] was tested, and the IC50 [1] was less than 100 nM, the IC50 (U937 cancer cell line; [2]) was less than 330 nM and the IC50 (HUT cancer cell line) was less than 330 nM. The IC50 (Hela cancer cell line; Homo sapiens, HeLa) was 330 to 3300 nM.

For O=C(CCCCCCC(=O)Nc1cccc(CNC(=O)N[C@@H](Cc2ccccc2)C(=O)OC2CCCC2)c1)NO [Compound 81, (S)-2-{3-[3-(7-Hydroxycarbamoyl-heptanoylamino)-benzyl]-ureido}-3-phenyl-propionic acid cyclopentyl ester], the IC50 [1] was less than 100 nM, the IC50 (U937 cancer cell line; [2]) was greater than 3300 nM and the IC50 (HUT cancer cell line) was 330 to 3300 nM. The IC50 (Hela cancer cell line; Homo sapiens, HeLa) was greater than 3300 nM.

Work on CC(C)(C)OC[C@H](NCc1ccc(NC(=O)CCCCCCC(=O)NO)cc1)C(=O)OC1CCCC1 [Compound 89, (S)-3-tert-Butoxy-2-[4-(7-hydroxycarbamoyl-heptanoylamino)-benzylamino]-propionic acid cyclopentyl ester] yielded an IC50 [1] of 101 to 1000 nM, an IC50 (U937 cancer cell line; [2]) of less than 330 nM and an IC50 (HUT cancer cell line) of 330 to 3300 nM. For the same compound, the IC50 (Hela cancer cell line; Homo sapiens, HeLa) was greater than 3300 nM.

Work on O=C(CCCCCCC(=O)N1CCCC1C(=O)N[C@H](C(=O)OC1CCCC1)c1ccccc1)NO (stereo partly drawn) [Compound 53, (S)-{[1-(7-Hydroxycarbamoyl-heptanoyl)-pyrrolidine-2-carbonyl]-amino}-phenyl-acetic acid cyclopentyl ester] yielded an IC50 [1] greater than 1000 nM, an IC50 (U937 cancer cell line; [2]) greater than 3300 nM and an IC50 (HUT cancer cell line) greater than 3300 nM. For the same compound, the IC50 (Hela cancer cell line; Homo sapiens, HeLa) was greater than 3300 nM.

CCOC(=O)[C@H](CCc1ccccc1)NCc1cccc(NC(=O)CCCCCCC(=O)NO)c1 [Compound 29, (S)-2-[3-(7-Hydroxycarbamoyl-heptanoylamino)-benzylamino]-4-phenyl-butyric acid ethyl ester] gave an IC50 [1] of 101 to 1000 nM, an IC50 (U937 cancer cell line; [2]) of 330 to 3300 nM and an IC50 (HUT cancer cell line) of 330 to 3300 nM. The IC50 (Hela cancer cell line; Homo sapiens, HeLa) was 330 to 3300 nM.

O=C(CCCCCCC(=O)N1Cc2[nH]c3ccccc3c2C[C@H]1C(=O)N[C@@H](Cc1ccccc1)C(=O)O)NO [Compound 8, (S)-2-{[(S)-2-(7-Hydroxycarbamoyl-heptanoyl)-2,3,4,9-tetrahydro-1H-beta-carboline-3-carbonyl]-amino}-3-phenyl-propionic acid] showed an IC50 [1] of 101 to 1000 nM, an IC50 (U937 cancer cell line; [2]) greater than 3300 nM and an IC50 (HUT cancer cell line) greater than 3300 nM. It also gave an IC50 (Hela cancer cell line; Homo sapiens, HeLa) greater than 3300 nM.

Work on CCOC(=O)[C@H](Cc1ccccc1)NCc1cncc(NC(=O)CCCCCCC(=O)NO)c1 [Compound 66, (S)-2-{[5-(7-Hydroxycarbamoyl-heptanoylamino)-pyridin-3-ylmethyl]-amino}-3-phenyl-propionic acid ethyl ester] yielded an IC50 [1] of 101 to 1000 nM, an IC50 (U937 cancer cell line; [2]) greater than 3300 nM and an IC50 (HUT cancer cell line) greater than 3300 nM. The IC50 (Hela cancer cell line; Homo sapiens, HeLa) was greater than 3300 nM.

O=C(CCCCCCC(=O)Nc1cccc(CN[C@@H](Cc2ccccc2)C(=O)OC2CCCC2)c1)NO [Compound 28, (S)-2-[3-(7-Hydroxycarbamoyl-heptanoylamino)-benzylamino]-3-phenyl-propionic acid cyclopentyl ester] showed an IC50 [1] of 101 to 1000 nM, an IC50 (U937 cancer cell line; [2]) of 330 to 3300 nM and an IC50 (HUT cancer cell line) of 330 to 3300 nM. The IC50 (Hela cancer cell line; Homo sapiens, HeLa) was 330 to 3300 nM.

CC(C)C[C@H](NC(=O)[C@@H]1Cc2ccc(NC(=O)CCCCCCC(=O)NO)cc2CN1)C(=O)OC1CCCC1 [Compound 96, (S)-2-{[(S)-7-(7-Hydroxycarbamoyl-heptanoylamino)-1,2,3,4-tetrahydro-isoquinoline-3-carbonyl]-amino}-4-methyl-pentanoic acid cyclopentyl ester] was tested, and the IC50 [1] was 101 to 1000 nM, the IC50 (U937 cancer cell line; [2]) was 330 to 3300 nM and the IC50 (HUT cancer cell line) was 330 to 3300 nM. The IC50 (Hela cancer cell line; Homo sapiens, HeLa) was greater than 3300 nM.

CCOC(=O)[C@H](Cc1ccccc1)NC(=O)[C@H]1Cc2c([nH]c3ccccc23)CN1C(=O)CCCCCCC(=O)NO [Compound 5, (S)-2-{[(R)-2-(7-Hydroxycarbamoyl-heptanoyl)-2,3,4,9-tetrahydro-1H-beta-carboline-3-carbonyl]-amino}-3-phenyl-propionic acid ethyl ester] was tested, and the IC50 [1] was 101 to 1000 nM, the IC50 (U937 cancer cell line; [2]) was 330 to 3300 nM and the IC50 (HUT cancer cell line) was 330 to 3300 nM. It also gave an IC50 (Hela cancer cell line; Homo sapiens, HeLa) of 330 to 3300 nM.

Work on O=C(CCCCCCC(=O)N1Cc2[nH]c3ccccc3c2[C@H](C(=O)N[C@@H](Cc2ccccc2)C(=O)OC2CCCC2)C1)NO [Compound 58, (S)-2-{[(S)-2-(7-Hydroxycarbamoyl-heptanoyl)-2,3,4,9-tetrahydro-1H-beta-carboline-4-carbonyl]-amino}-3-phenyl-propionic acid cyclopentyl ester] yielded an IC50 [1] of 101 to 1000 nM, an IC50 (U937 cancer cell line; [2]) of 330 to 3300 nM and an IC50 (HUT cancer cell line) of 330 to 3300 nM. For the same compound, the IC50 (Hela cancer cell line; Homo sapiens, HeLa) was 330 to 3300 nM.

In the case of O=C(NO)c1cc2ccc(CNCc3ccc(CN[C@@H](Cc4ccccc4)C(=O)OC4CCCC4)cc3)cc2s1 [Compound 104, (S)-2-(4-{[(2-Hydroxycarbamoyl-benzo[b]thiophen-6-ylmethyl)-amino]-methyl}-benzylamino)-3-phenyl-propionic acid cyclopentyl ester], the IC50 [1] is reported as 101 to 1000 nM, the IC50 (U937 cancer cell line; [2]) is reported as less than 330 nM and the IC50 (HUT cancer cell line) is reported as 330 to 3300 nM. For the same compound, the IC50 (Hela cancer cell line; Homo sapiens, HeLa) was 330 to 3300 nM.

CC(C)C[C@H](NCc1cccc(NCc2ccc3cc(C(=O)NO)sc3c2)c1)C(=O)OC1CCCC1 [Compound 133, (S)-2-{3-[(2-Hydroxycarbamoyl-benzo[b]thiophen-6-ylmethyl)-amino]-benzylamino}-4-methyl-pentanoic acid cyclopentyl ester] gave an IC50 [1] of 101 to 1000 nM, an IC50 (U937 cancer cell line; [2]) of 330 to 3300 nM and an IC50 (HUT cancer cell line) greater than 3300 nM. For the same compound, the IC50 (Hela cancer cell line; Homo sapiens, HeLa) was 330 to 3300 nM.

With COc1ccc2[nH]c3c(c2c1)CCN(C(=O)CCCCCCC(=O)NO)C3C(=O)N[C@H](C(=O)O)c1ccccc1 (stereo partly drawn) [Compound 14, (S)-{[2-(7-Hydroxycarbamoyl-heptanoyl)-6-methoxy-2,3,4,9-tetrahydro-1H-beta-carboline-1-carbonyl]-amino}-phenyl-acetic acid] the IC50 [1] was 101 to 1000 nM, the IC50 (U937 cancer cell line; U937 cells) was greater than 3300 nM and the IC50 (HUT cancer cell line) was greater than 3300 nM. It also gave an IC50 (Hela cancer cell line) greater than 3300 nM.

With O=C(CCCCCCC(=O)Nc1cccc(C(=O)N[C@H](C(=O)OC2CCCC2)c2ccccc2)c1)NO [Compound 60, (S)-[3-(7-Hydroxycarbamoyl-heptanoylamino)-benzoylamino]-phenyl-acetic acid cyclopentyl ester] the IC50 [1] was 101 to 1000 nM, the IC50 (U937 cancer cell line; [2]) was 330 to 3300 nM and the IC50 (HUT cancer cell line) was 330 to 3300 nM. For the same compound, the IC50 (Hela cancer cell line; Homo sapiens, HeLa) was 330 to 3300 nM.

Work on O=C(NO)c1cc2ccc(CNCc3ccc(CN[C@H](C(=O)OC4CCCC4)C4CCCCC4)cc3)cc2s1 [Compound 116, (S)-Cyclohexyl-(4-{[(2-hydroxycarbamoyl-benzo[b]thiophen-6-ylmethyl)-amino]-methyl}-benzylamino)-acetic acid cyclopentyl ester] yielded an IC50 [1] of 101 to 1000 nM, an IC50 (U937 cancer cell line; [2]) of 330 to 3300 nM and an IC50 (HUT cancer cell line) greater than 3300 nM. For the same compound, the IC50 (Hela cancer cell line; Homo sapiens, HeLa) was greater than 3300 nM.

Compound O=C(NO)c1cc2ccc(CNCc3ccc(CN[C@@H](Cc4ccc(O)cc4)C(=O)OC4CCCC4)cc3)cc2s1 [Compound 106, (S)-2-(4-{[(2-Hydroxycarbamoyl-benzo[b]thiophen-6-ylmethyl)-amino]-methyl}-benzylamino)-3-(4-hydroxy-phenyl)-propionic acid cyclopentyl ester] has an IC50 [1] of less than 100 nM, an IC50 (U937 cancer cell line; [2]) of less than 330 nM and an IC50 (HUT cancer cell line) of less than 330 nM. It also gave an IC50 (Hela cancer cell line; Homo sapiens, HeLa) of 330 to 3300 nM.

O=C(NO)c1cc2ccc(CNc3cccc(CN[C@H](C(=O)OC4CCCC4)C4CCCCC4)c3)cc2s1 [Compound 131, (S)-{3-[(2-Hydroxycarbamoyl-benzo[b]thiophen-6-ylmethyl)-amino]-benzylamino}-cyclohexyl-acetic acid cyclopentyl ester] gave an IC50 [1] greater than 1000 nM, an IC50 (U937 cancer cell line; [2]) of 330 to 3300 nM and an IC50 (HUT cancer cell line) greater than 3300 nM. The IC50 (Hela cancer cell line; Homo sapiens, HeLa) was greater than 3300 nM.

O=C(CCCCCCC(=O)N1CCc2ccc(C(=O)N[C@H](C(=O)OC3CCCC3)c3ccccc3)cc2C1)NO [Compound 15, (S)-{[2-(7-Hydroxycarbamoyl-heptanoyl)-1,2,3,4-tetrahydro-isoquinoline-7-carbonyl]-amino}-phenyl-acetic acid cyclopentyl ester] showed an IC50 [1] greater than 1000 nM, an IC50 (U937 cancer cell line; [2]) of 330 to 3300 nM and an IC50 (HUT cancer cell line) of 330 to 3300 nM. It also gave an IC50 (Hela cancer cell line; Homo sapiens, HeLa) greater than 3300 nM.

O=C(CCCCCCC(=O)Nc1cccc(OCCCC(=O)N[C@H](C(=O)OC2CCCC2)c2ccccc2)c1)NO [Compound 92, (S)-{4-[3-(7-Hydroxycarbamoyl-heptanoylamino)-phenoxy]-butyrylamino}-phenyl-acetic acid cyclopentyl ester] was tested, and the IC50 [1] was less than 100 nM, the IC50 (U937 cancer cell line; [2]) was 330 to 3300 nM and the IC50 (HUT cancer cell line) was 330 to 3300 nM. It also gave an IC50 (Hela cancer cell line; Homo sapiens, HeLa) of 330 to 3300 nM.

Compound CC(C)(C)OC[C@H](NCc1cccc(NCc2ccc3cc(C(=O)NO)sc3c2)c1)C(=O)OC1CCCC1 [Compound 132, (S)-3-tert-Butoxy-2-{3-[(2-hydroxycarbamoyl-benzo[b]thiophen-6-ylmethyl)-amino]-benzylamino}-propionic acid cyclopentyl ester] has an IC50 [1] of 101 to 1000 nM, an IC50 (U937 cancer cell line; [2]) of 330 to 3300 nM and an IC50 (HUT cancer cell line) of 330 to 3300 nM. For the same compound, the IC50 (Hela cancer cell line; Homo sapiens, HeLa) was greater than 3300 nM.

Source: patent US9133104B2 (Chroma Therapeutics Ltd., priority 2005, dated 2015)
